Experimental data: patent publication US11845774B2, “Sterol derivatives and preparation method and uses thereof” (BEIJING PEKING UNIVERSITY WBL BIOTECH CO., LTD., priority 2011, dated 2023)

How the values were obtained:
[1] = tested on: human colon cancer cell strain HCT116; experiment: MTT test of inhibiting cancer cells, HCT116; type: cell-based; conditions: 72 hours, FIG. 1, concentration-effect relationship
Method: (§1) Cancer cells of exponential growth phase were inoculated on 96-well plate, 2×10^4 cells/well, added with drug until final drug concentrations were: 500, 250, 125, 62.5, 31.25, 15.625 and 7.8125 μg/mL, cultured at 37° C. in 5% CO2 cell culture incubator for 72 hours, then added with MTT, 10 μL/well, incubated in dark at 37° C. for 4 hours, culture medium was removed, 150 μL of DMSO or acidified isopropanol was added, vibrated for 5 minutes, and then OD values were measured under wavelength of 570 nm. This was repeated for 3 times, and a blank control was set. These cell strains used the same culture medium, i.e., RPMI1640 culture medium containing 10% fetal bovine serum and 1% double antibody (penicillin and steptomycin).
(§2) Calculation Formula: Cell survival rate=(OD value of test group/OD value of control group)×100%.

[2] = tested on: mice hepatoma cell line H22; experiment: MTT test of inhibiting cancer cells, H22; type: cell-based; conditions: Mus musculus, 72 hours, FIG. 2, read-out: IC50 value, growth of H22
Method: as §1, §2

[3] = tested on: HepG2 cells; experiment: MTT test of inhibiting cancer cells, HepG2; type: cell-based; conditions: Homo sapiens, 72 hours, FIG. 3, read-out: IC50 value, growth of human hepatoma cell line
Method: as §1, §2

[4] = tested on: mice sarcoma cell line S180; experiment: MTT test of inhibiting cancer cells, S180; type: cell-based; conditions: 72 hours, FIG. 4, concentration-effect relationship
Method: as §1, §2

[5] = tested on: human mononuclear lymphoma cell THP1; experiment: MTT test of inhibiting cancer cells, THP1; type: cell-based; conditions: THP-1, 72 hours, FIG. 6, read-out: IC50 value, growth of THP1
Method: as §1, §2

[6] = tested on: mice melanoma cell B16-F10; experiment: MTT test of inhibiting cancer cells, B16-F10; type: cell-based; conditions: Mus musculus, 72 hours, FIG. 8, read-out: IC50 value, growth of B16-F10
Method: as §1, §2

[7] = target: T1, Porcine pancreatic lipase (Sus scrofa, UniProt P00591); experiment: Test of activity of inhibiting lipase (copper oleate colorimetry, olive oil substrate); type: biochemical, pig; conditions: for Absorbance: 714 nm, blank control 0.6680; for Enzyme activity: blank control 1.69; for Concentration of generated oleic acid: blank control 2.75
T1 construct: purchased Sigma
T1 sequence (P00591 1-450): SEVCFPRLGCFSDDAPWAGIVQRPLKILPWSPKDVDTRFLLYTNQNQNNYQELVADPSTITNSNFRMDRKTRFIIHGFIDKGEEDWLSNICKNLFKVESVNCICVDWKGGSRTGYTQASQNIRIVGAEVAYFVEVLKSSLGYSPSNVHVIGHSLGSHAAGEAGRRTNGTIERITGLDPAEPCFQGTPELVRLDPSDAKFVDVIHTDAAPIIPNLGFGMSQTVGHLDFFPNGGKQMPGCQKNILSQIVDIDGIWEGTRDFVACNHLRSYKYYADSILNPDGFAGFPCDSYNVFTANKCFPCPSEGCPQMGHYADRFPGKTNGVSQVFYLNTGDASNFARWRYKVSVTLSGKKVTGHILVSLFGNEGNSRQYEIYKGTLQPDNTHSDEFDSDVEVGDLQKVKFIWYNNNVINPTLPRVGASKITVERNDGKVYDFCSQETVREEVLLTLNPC
Method: 2.1 Preparation of light absorbance working curve for fatty acid: a series of oleic acid-toluene solutions with different concentrations (0-3.5 mmol/L, separately being 0, 0.225, 0.45, 0.675, 0.9, 1.125, 1.35, 1.8, 2.25, 2.7, and 3.5 mmol/L), 4 mL of each was taken and placed in conical flask, added with 1 mL of color developing agent, stirred with magnetic force for 3 minutes, oleic acid molecules and copper ions formed a green complex compound, after centrifugation, organic phase of upper layer was taken and measured at 714 nm to determine light absorbance.
2.2 Enzyme solution was 0.5 mg/mL pancreatic lipase solution; buffer solution was 0.07M NaH2PO4—K2HPO4 phosphate buffer solution (pH 7.0); color developing agent was 5% copper acetate solution, which was regulated with pyridine to have pH 6.1.
3 mL of 0.07M phosphate buffer solution and 1 mL of olive oil were pre-heated at a constant temperature of 37° C. for 5 minutes in water bath under agitation with a magnetic stirrer, added with 1.3 mL of enzyme solution (negative control was that without enzyme inhibitor; positive control is that added with 100 μL of 0.1 mg/mL orlistat solution; […]), stirred with magnetic force for 10 minutes, immediately added with 8 mL of toluene, stirred continuously for 2 minutes, the reaction was terminated, the generated oleic acid was extracted. The solutions were transferred to centrifuge tube, centrifuged under 4000 rpm for 10 minutes, and the organic phase and water phase were layered and clarified. 4 mL of the upper layer organic phase was taken and placed in a small conical flask, added with 1 mL of color developing agent, stirred with magnetic stirrer for 3 minutes, the generated oleic acid reacted with copper ions to form green complex compound. After centrifugation under 4000 rpm for 10 minutes, the upper layer of toluene solution containing copper oleate was taken, and measured with a spectrophotometer at 714 nm to determine its light absorbance. A blank solution without lipase was prepared as control by the same method, and concentration of fatty acid could be determined by referring to light absorbance working curve of oleic acid.
Enzyme activity unit of lipase was defined as follows: an enzyme amount to release 1 μmol fatty acid under certain condition was defined as 1 unit of lipase activity (U).
The following formula was used to calculate enzyme activity: X=(cV)/(tV′)
wherein: X represents enzyme activity of lipase, U/mL; c represents concentration of fatty acid, […]; V represents volume of fatty acid solution, mL; V′ represents amount of enzyme solution, mL; t represents action time, minute. Inhibition rate=[(enzyme activity of lipase−enzyme activity of lipase after inhibition)/enzyme activity of lipase]×100%

[8] = final concentration of inhibitor in the system 111 μg/mL
[9] = final concentration of inhibitor in the system 166 μg/mL
[10] = final concentration of inhibitor in the system 203 μg/mL
[11] = final concentration of inhibitor in the system 240 μg/mL
[12] = final concentration of inhibitor in the system 333 μg/mL

Structure (SMILES): C[C@@H](C(O)C1OC2C[C@H]3C4=CC=C5CC(O)CC[C@]5(C)[C@H]4CC[C@]3(C)[C@H]2[C@@]1(C)O)C(C)(C)O (stereo partly drawn) [Compound of Formula II, 16,22-epoxy-ergosta-5,7-dien-3,20,23,25-tetraol]
- inhibition effect on growth of HCT116 (in words) [1]: inhibition effect
- IC50 [2]: ~50 µg/mL
- IC50 [3]: ~200 µg/mL
- inhibition effect on growth of S180 (in words) [4]: inhibition effect
- IC50 [5]: ~250 µg/mL
- IC50 [6]: ~62.5 µg/mL
- Absorbance [7, 8]: 0.5665
- Absorbance [7, 9]: 0.5035
- Absorbance [7, 10]: 0.3998
- Absorbance [7, 11]: 0.2743
- Absorbance [7, 12]: 0.2611
- Inhibition rate [7, 8]: 15.38%
- Enzyme activity [7, 8]: 1.43 U/mL
- Concentration of generated oleic acid [7, 8]: 2.32 mM
- Inhibition rate [7, 9]: 24.85%
- Enzyme activity [7, 9]: 1.27 U/mL
- Concentration of generated oleic acid [7, 9]: 2.06 mM
- Inhibition rate [7, 10]: 40.83%
- Enzyme activity [7, 10]: 1.00 U/mL
- Concentration of generated oleic acid [7, 10]: 1.63 mM
- Inhibition rate [7, 11]: 59.76%
- Enzyme activity [7, 11]: 0.68 U/mL
- Concentration of generated oleic acid [7, 11]: 1.10 mM
- Inhibition rate [7, 12]: 62.13%
- Enzyme activity [7, 12]: 0.64 U/mL
- Concentration of generated oleic acid [7, 12]: 1.04 mM
- IC50 ([7]; read-out: IC50 value, inhibition of activity of lipase (converted)): ~478 µM
